Values joined by “and” are separate entries in the source; they are usually repeats but may differ in a detail not shown here. Identical values can stand only once. Toxic doses and inconclusive results are not listed.

This experiment concerns L1210 leukemia ip in BDF1 mice, survival T/C. Nature of the experiment: NCI In Vivo Anticancer Drug Screen. Data for tumor model L1210 Leukemia (intraperitoneal) in B6D2F1 (BDF1) mice. The note with it: endpoint: mean survival time, higher = longer survival. Put shortly:
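Tumor cells were implanted, animals were treated, and survival was followed. The result divides the treated measurement by the vehicle-control measurement.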

[1] abbreviates: dose: 100.0 mg/kg/injection, schedule: Q04DX003 (ip), vehicle: saline with Tween-80.
Where [2] appears, read: dose: 200.0 mg/kg/injection, schedule: Q04DX003 (ip), vehicle: saline with Tween-80.
Setting [3] is: dose: 400.0 mg/kg/injection, schedule: Q04DX003 (ip), vehicle: saline with Tween-80.
[4] abbreviates: dose: 100.0 mg/kg/injection, schedule: Q04DX003 (ip), vehicle: Klucel (hydroxypropylcellulose) (HPC).
Where [5] appears, read: dose: 200.0 mg/kg/injection, schedule: Q04DX003 (ip), vehicle: Klucel (hydroxypropylcellulose) (HPC).
[6] abbreviates: dose: 400.0 mg/kg/injection, schedule: Q04DX003 (ip), vehicle: Klucel (hydroxypropylcellulose) (HPC).
Setting [7] is: dose: 50.0 mg/kg/injection, schedule: Q01DX009 (ip), vehicle: Klucel (hydroxypropylcellulose) (HPC).
Setting [8] is: dose: 100.0 mg/kg/injection, schedule: Q04DX003 (ip), vehicle: saline.
The mark [9] stands for this setting: dose: 200.0 mg/kg/injection, schedule: Q04DX003 (ip), vehicle: saline.
Setting [10] is: dose: 400.0 mg/kg/injection, schedule: Q04DX003 (ip), vehicle: saline.
The mark [11] stands for this setting: dose: 100.0 mg/kg/injection, schedule: Q01DX001 (ip), vehicle: saline with Tween-80.
[12] abbreviates: dose: 200.0 mg/kg/injection, schedule: Q01DX001 (ip), vehicle: saline with Tween-80.
[13] abbreviates: dose: 400.0 mg/kg/injection, schedule: Q01DX001 (ip), vehicle: saline with Tween-80.
The mark [14] stands for this setting: dose: 100.0 mg/kg/injection, schedule: Q01DX009 (ip), vehicle: saline with Tween-80.
Setting [15] is: dose: 200.0 mg/kg/injection, schedule: Q01DX009 (ip), vehicle: saline with Tween-80.
Where [16] appears, read: dose: 400.0 mg/kg/injection, schedule: Q01DX009 (ip), vehicle: saline with Tween-80.

In the case of `c1ccc(N(CC2CO2)CC2CO2)cc1` (stereo not given), the T/C under setting [1] was 106 % of control, the T/C under setting [2] was 104 % of control and the T/C under setting [3] was 112 % of control.
For the compound `O=c1ccccn1Cc1ccccc1`, the T/C under setting [4] was 106 % of control, the T/C under setting [5] was 117 % of control and the T/C under setting [6] is 98 % of control.
As for `CC(C)=CCC(N)CC=C(C)C`, the T/C runs as follows: (dose: 12.5 mg/kg/injection, schedule: Q01DX009 (ip), vehicle: Klucel (hydroxypropylcellulose) (HPC)) 91 % of control; (dose: 25.0 mg/kg/injection, schedule: Q01DX009 (ip), vehicle: Klucel (hydroxypropylcellulose) (HPC)) 102 % of control; (dose: 25.0 mg/kg/injection, schedule: Q04DX002 (ip), vehicle: Klucel (hydroxypropylcellulose) (HPC)) 112 % of control; under setting [7], 106 % of control; (dose: 50.0 mg/kg/injection, schedule: Q04DX002 (ip), vehicle: Klucel (hydroxypropylcellulose) (HPC)) 105 % of control.
As for `N#CCCOCCOCCC#N`, the T/C was 109 % of control under setting [8], 101 % of control under setting [9] and 95 % of control under setting [10].
For `CSc1nccc(=O)[nH]1`, the T/C reads like this: under setting [7], 100 % of control; (dose: 100.0 mg/kg/injection, schedule: Q01DX009 (ip), vehicle: Klucel (hydroxypropylcellulose) (HPC)) 95 % of control; under setting [4], 102 % of control; under setting [5], 96 % of control.
In the case of `Cc1ccc(/C=C/c2ccccc2)cc1`, the T/C (dose: 75.0 mg/kg/injection, schedule: Q01DX009 (ip), vehicle: Klucel (hydroxypropylcellulose) (HPC)) is 98 % of control; the T/C (dose: 150.0 mg/kg/injection, schedule: Q01DX009 (ip), vehicle: Klucel (hydroxypropylcellulose) (HPC)) is 104 % of control; the T/C (dose: 300.0 mg/kg/injection, schedule: Q01DX009 (ip), vehicle: Klucel (hydroxypropylcellulose) (HPC)) is 103 % of control.
With `O=C(NCC(O)CCl)c1ccc([N+](=O)[O-])cc1` (stereo not given), the T/C is 95 % of control (dose: 100.0 mg/kg/injection, schedule: Q01DX001 (ip), vehicle: Klucel (hydroxypropylcellulose) (HPC)); 97 % of control under setting [4]; 103 % of control (dose: 200.0 mg/kg/injection, schedule: Q01DX001 (ip), vehicle: Klucel (hydroxypropylcellulose) (HPC)); 105 % of control under setting [5]; 95 % of control (dose: 400.0 mg/kg/injection, schedule: Q01DX001 (ip), vehicle: Klucel (hydroxypropylcellulose) (HPC)); 92 % of control under setting [6].
For `CC(=O)C(=O)Nc1ccccc1`, the T/C by setting is: under setting [11], 94 % of control; under setting [12], 91 % of control; under setting [13], 94 % of control.
As to `Cc1cc(C(C)(C)c2cc(C)c(O)c(C)c2)cc(C)c1O`, the T/C is 95 % of control under setting [14]; 105 % of control under setting [1]; 93 % of control under setting [15]; 102 % of control under setting [2]; 97 % of control under setting [16]; 96 % of control under setting [3].
In the case of `COCP(=O)(OC)OC`, the T/C is, setting by setting: under setting [8], 116 % of control; under setting [9], 94 % of control; under setting [10], 100 % of control.
For `Clc1ccccc1CSc1ncnc2nc[nH]c12`, the T/C (dose: 16.0 mg/kg/injection, schedule: Q01DX Z (ip), vehicle: other) was 96 % of control; the T/C (dose: 31.0 mg/kg/injection, schedule: Q01DX Z (ip), vehicle: other) is 106 % of control; the T/C (dose: 40.0 mg/kg/injection, schedule: Q01DX009 (ip), vehicle: saline) was 120 % of control; the T/C (dose: 62.0 mg/kg/injection, schedule: Q01DX Z (ip), vehicle: other) is 112 % of control; the T/C (dose: 70.0 mg/kg/injection, schedule: Q01DX009 (ip), vehicle: saline) was 110 % of control; the T/C (dose: 187.0 mg/kg/injection, schedule: Q01DX Z (ip), vehicle: other) was 150 % of control. The T/C is 124 % of control (dose: 265.0 mg/kg/injection, schedule: Q01DX001 (ip), vehicle: acetone); 107 % of control (dose: 265.0 mg/kg/injection, schedule: Q01DX001 (ip), vehicle: saline); 94 % of control (dose: 300.0 mg/kg/injection, schedule: Q01DX009 (ip), vehicle: acetone); 123 % of control (dose: 300.0 mg/kg/injection, schedule: Q01DX009 (ip), vehicle: saline); 103 % of control (dose: 375.0 mg/kg/injection, schedule: Q01DX Z (ip), vehicle: other); 110 % of control (dose: 400.0 mg/kg/injection, schedule: Q01DX001 (ip), vehicle: saline). Besides, the T/C was 115 % of control (dose: 400.0 mg/kg/injection, schedule: Q01DX009 (ip), vehicle: saline); 91 % of control (dose: 450.0 mg/kg/injection, schedule: Q01DX009 (ip), vehicle: acetone); 86 % of control (dose: 500.0 mg/kg/injection, schedule: Q01DX Z (ip), vehicle: other).
In the case of `O=C(c1ccccc1[N+](=O)[O-])C(Br)C(Br)c1cccc2ccccc12` (stereo not given), the T/C is, setting by setting: (dose: 50.0 mg/kg/injection, schedule: Q01DX009 (ip), vehicle: saline with Tween-80) 96 % of control and 91 % of control; under setting [11], 96 % of control; under setting [14], 93 % of control and 94 % of control; (dose: 100.0 mg/kg/injection, schedule: Q04DX002 (ip), vehicle: saline with Tween-80) 93 % of control; under setting [1], 90 % of control; under setting [12], 96 % of control. For the same compound, the T/C runs as follows: under setting [15], 86 % of control and 89 % of control; (dose: 200.0 mg/kg/injection, schedule: Q04DX002 (ip), vehicle: saline with Tween-80) 88 % of control and 90 % of control; under setting [2], 91 % of control; under setting [13], 100 % of control; under setting [3], 88 % of control.
On to `COc1ccccc1-n1c(O)c(N=Nc2ccccc2C)c(=O)n(-c2ccc(Br)cc2)c1=S`, for which the T/C runs as follows: (dose: 37.5 mg/kg/injection, schedule: Q01DX001 (ip), vehicle: Klucel (hydroxypropylcellulose) (HPC)) 94 % of control; (dose: 75.0 mg/kg/injection, schedule: Q01DX001 (ip), vehicle: Klucel (hydroxypropylcellulose) (HPC)) 106 % of control; (dose: 150.0 mg/kg/injection, schedule: Q01DX001 (ip), vehicle: Klucel (hydroxypropylcellulose) (HPC)) 87 % of control.
On to `CC(C)=CCNc1nc(=O)[nH]c2nc[nH]c12`, for which the T/C is, setting by setting: (dose: 75.0 mg/kg/injection, schedule: Q01DX001 (ip), vehicle: saline) 92 % of control; (dose: 150.0 mg/kg/injection, schedule: Q01DX001 (ip), vehicle: saline) 88 % of control; (dose: 300.0 mg/kg/injection, schedule: Q01DX001 (ip), vehicle: saline) 88 % of control.
In the case of `O=C(/C=C/c1c(Cl)cccc1Cl)c1ccc(Cl)cc1`, the T/C under setting [14] was 98 % of control; the T/C under setting [1] was 90 % of control; the T/C under setting [15] was 95 % of control; the T/C under setting [2] is 90 % of control; the T/C under setting [16] is 90 % of control; the T/C under setting [3] was 91 % of control.
On to `Nc1ncnc2nc(CO)[nH]c12`, for which the T/C by setting is: (dose: 100.0 mg/kg/injection, schedule: Q04DX002 (ip), vehicle: Klucel (hydroxypropylcellulose) (HPC)) 92 % of control; (dose: 200.0 mg/kg/injection, schedule: Q04DX002 (ip), vehicle: Klucel (hydroxypropylcellulose) (HPC)) 100 % of control; (dose: 400.0 mg/kg/injection, schedule: Q04DX002 (ip), vehicle: Klucel (hydroxypropylcellulose) (HPC)) 95 % of control.
`CCOP(=O)(OCC)Oc1ccc([N+](=O)[O-])c(CC)c1`: the T/C was 100 % of control (dose: 5.0 mg/kg/injection, schedule: Q01DX001 (ip), vehicle: saline) and 100 % of control (dose: 10.0 mg/kg/injection, schedule: Q01DX001 (ip), vehicle: saline).
Regarding `CCCCSc1ccc2c(cc1=O)C(N)CCc1cc(OC)c(OC)c(OC)c1-2` (stereo not given), the T/C is 104 % of control (dose: 12.5 mg/kg/injection, schedule: Q04DX002 (ip), vehicle: saline); 88 % of control (dose: 25.0 mg/kg/injection, schedule: Q04DX002 (ip), vehicle: saline); 95 % of control (dose: 50.0 mg/kg/injection, schedule: Q04DX002 (ip), vehicle: saline).

The record behind these values is PubChem BioAssay AID248 (DTP/NCI, 2004).
